Measurements as given in ChEMBL document CHEMBL4825722, “Discovery of Potent Selective Nonzinc Binding Autotaxin Inhibitor BIO-32546” (ACS Med Chem Lett, 2021).

Key:
[1] = Protein binding in rat plasma assessed as unbound fraction; format: ADME, cell-free
[2] = Protein binding in human plasma assessed as unbound fraction at 2 uM by rapid equilibrium dialysis method; format: ADME, cell-free
[3] = Total brain to plasma concentration ratio in rat at 10 mg/kg, po measured after 4 hrs; format: ADME, organism-based; settings: brain and plasma, read-out: BPR
[4] = Clearance in rat at 10 mg/kg, po; format: ADME, organism-based; settings: in vivo
[5] = Drug concentration in rat brain at 10 mg/kg, po after 4 hrs; format: ADME, organism-based; settings: read-out: Ct
[6] = target: Autotaxin (Homo sapiens, UniProt Q13822); experiment: Inhibition of human ATX assessed as reduction in LPA formation using FS-3 as substrate preincubated for 30 mins followed by substrate addition and measured after 2 hrs by FRET assay
[7] = target: T1, hERG (KCNH2) (Homo sapiens, UniProt Q12809); experiment: Inhibition of human ERG at 1 uM by automated patch-clamp assay relative to control
T1 sequence (Q12809 whole entry): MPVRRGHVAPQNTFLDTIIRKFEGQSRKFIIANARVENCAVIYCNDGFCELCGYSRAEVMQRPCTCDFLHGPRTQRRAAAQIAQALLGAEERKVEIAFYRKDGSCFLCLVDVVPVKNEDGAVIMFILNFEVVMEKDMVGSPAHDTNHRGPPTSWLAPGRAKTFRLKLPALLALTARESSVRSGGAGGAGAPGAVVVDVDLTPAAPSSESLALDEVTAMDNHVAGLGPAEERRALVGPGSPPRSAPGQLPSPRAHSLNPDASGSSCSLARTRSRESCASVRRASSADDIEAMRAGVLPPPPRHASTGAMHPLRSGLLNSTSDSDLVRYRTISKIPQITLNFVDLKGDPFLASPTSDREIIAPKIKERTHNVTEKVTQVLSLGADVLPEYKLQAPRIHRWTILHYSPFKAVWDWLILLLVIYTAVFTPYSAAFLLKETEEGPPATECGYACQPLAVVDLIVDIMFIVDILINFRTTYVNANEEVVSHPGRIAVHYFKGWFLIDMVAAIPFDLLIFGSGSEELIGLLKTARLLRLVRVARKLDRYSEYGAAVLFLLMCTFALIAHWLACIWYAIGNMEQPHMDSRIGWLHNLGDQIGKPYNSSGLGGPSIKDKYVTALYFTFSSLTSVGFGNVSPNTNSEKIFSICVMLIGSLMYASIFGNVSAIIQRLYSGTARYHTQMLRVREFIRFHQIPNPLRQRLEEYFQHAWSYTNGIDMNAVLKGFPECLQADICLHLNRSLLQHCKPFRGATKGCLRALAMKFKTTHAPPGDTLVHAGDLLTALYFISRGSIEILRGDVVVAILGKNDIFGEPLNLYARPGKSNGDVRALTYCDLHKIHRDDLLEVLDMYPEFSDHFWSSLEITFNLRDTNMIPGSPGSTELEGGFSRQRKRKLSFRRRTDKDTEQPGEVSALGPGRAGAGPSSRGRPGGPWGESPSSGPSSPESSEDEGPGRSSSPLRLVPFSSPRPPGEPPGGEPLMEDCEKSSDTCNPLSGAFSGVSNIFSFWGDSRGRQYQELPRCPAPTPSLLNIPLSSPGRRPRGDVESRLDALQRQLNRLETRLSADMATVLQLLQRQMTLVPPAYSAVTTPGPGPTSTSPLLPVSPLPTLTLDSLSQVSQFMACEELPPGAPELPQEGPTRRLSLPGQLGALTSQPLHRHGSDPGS

[8] = target: T1, hERG (KCNH2); experiment: Inhibition of human ERG at 10 uM by automated patch-clamp assay relative to control

Compound	IC50 [6] [nM]	inhibition at 1 µM [7] [%]	inhibition at 10 µM [8] [%]	other results
C[C@@H](c1ccc2ccc(O[C@H]3CC[C@@H](C)CC3)c(C(F)(F)F)c2c1)N1C2CCC1CC(C(=O)O)C2 (some centres not stated)	–	–	–	Fu [1]: 0.22%; Fu [2]: 0.18%; Kp at 4 h [3]: 0.8; CL/F [4]: 94 mL/min/kg; concentration at 4 h [5]: 103 ng/mL
C[C@H](c1ccc2ccc(O[C@H]3CC[C@@H](C)CC3)c(C(F)(F)F)c2c1)N1C2CCCC1CC(C(=O)O)C2 (some centres not stated)	330	8.4	29.6	–
C[C@H]1CC[C@@H](Oc2ccc3ccc(CN4C5CCCC4CC(C(=O)O)C5)cc3c2C(F)(F)F)CC1 (some centres not stated)	8.2	12	84	–
CCCCCCCCCCCCCC(=O)OC[C@@H](O)COP(=O)(O)O	110	–	–	–
O=C(O)CCCNC(=O)c1ccc2c(C(F)(F)F)c(O[C@H]3CC[C@@H](C(F)(F)F)CC3)ccc2c1	3700	–	–	–
C[C@H]1CC[C@@H](Oc2ccc3ccc(CN4C5CCC4CC(C(=O)O)C5)cc3c2C(F)(F)F)CC1 (some centres not stated)	100	6	65	–
O=C(O)CCCNCc1ccc2c(C(F)(F)F)c(O[C@H]3CC[C@@H](C(F)(F)F)CC3)ccc2c1	1300	–	–	–
O=C(NCCCP(=O)(O)O)c1ccc2c(C(F)(F)F)c(O[C@H]3CC[C@@H](C(F)(F)F)CC3)ccc2c1	28	–	–	–
C[C@@H](c1ccc2ccc(O[C@H]3CC[C@@H](C)CC3)c(C(F)(F)F)c2c1)N1C2CCCC1CC(C(=O)O)C2 (some centres not stated)	3.6	4.6	24.4	–
C[C@H]1CC[C@@H](Oc2ccc3cc(CN4C5CCCC4CC(C(=O)O)C5)ccc3c2C(F)(F)F)CC1 (some centres not stated)	38	1.6	52.7	–
O=C(O)C1CCN(Cc2ccc3c(C(F)(F)F)c(O[C@H]4CC[C@@H](C(F)(F)F)CC4)ccc3c2)CC1	370	6.6	86.8	–
